According to ChEMBL document CHEMBL1201862, “PubChem BioAssay data set” (2004):
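Assay format: 96-well plates, 48-hour exposure. GI50 is the concentration that inhibits growth by half.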 Calls of active or inactive are those of the source. Cut-off read from the data, not from the text of the source: active = GI50 up to about 1.1 µM and inactive = higher.

What was measured:
Experiment in all cases: NCI tumour cell line growth inhibition, 48 h
[1] = test system: HOP-92
[2] = test system: PC-3
[3] = test system: OVCAR-5
[4] = test system: OVCAR-8
[5] = test system: U-251
[6] = test system: UO-31
[7] = test system: SN12C
[8] = test system: TK-10
[9] = test system: KM12
[10] = test system: EKVX
[11] = test system: SF-295
[12] = test system: MDA-MB-231
[13] = test system: DU-145
[14] = test system: HCT-15
[15] = test system: M14
[16] = test system: HCT-116
[17] = test system: RXF 393
[18] = test system: HT-29
[19] = test system: COLO 205
[20] = test system: RPMI-8226

Compound | GI50 [1] | GI50 [2] | GI50 [3] | GI50 [4] | GI50 [5] | GI50 [6] | GI50 [7] | GI50 [8] | GI50 [9] | GI50 [10] | GI50 [11] | GI50 [12] | GI50 [13] | GI50 [14] | GI50 [15] | GI50 [16] | GI50 [17] | GI50 [18] | GI50 [19] | GI50 [20]
CCc1ccc(COC(=O)C2=C(C)NC(C)=C(C(=O)OCc3ccc(CC)cn3)C2C2=COCCO2)nc1 | 20.7 µM (inactive) | 16 µM (inactive) | 28.1 µM (inactive) | 32.9 µM (inactive) | 17.5 µM (inactive) | 20.2 µM (inactive) | > 10 µM (inactive) | 33.7 µM (inactive) | 30.7 µM (inactive) | 12.7 µM (inactive) | 24.9 µM (inactive) | 14.2 µM (inactive) | 24.9 µM (inactive) | 22.7 µM | 16.9 µM (inactive) | 16.3 µM (inactive) | 15.4 µM (inactive) | 21.4 µM (inactive) | 12.5 µM (inactive) | –
CN1c2ccccc2SC2C(c3ccccc3)=NOC21 (stereo not given) | – | 18 µM (inactive) | 94.8 µM (inactive) | 49.3 µM (inactive) | 38.5 µM (inactive) | 35.1 µM (inactive) | 47.8 µM (inactive) | 16.2 µM (inactive) | 47.8 µM (inactive) | 24.9 µM (inactive) | 30.7 µM (inactive) | 27 µM (inactive) | 65.6 µM (inactive) | 15.5 µM | 38.2 µM (inactive) | 23.7 µM (inactive) | > 100 µM (inactive) | 30.1 µM (inactive) | 22.7 µM (inactive) | –
COc1ccc(C2=C(N)c3c(Cl)cccc3C2=O)cc1 | 34.9 µM (inactive) | > 100 µM (inactive) | > 100 µM (inactive) | 53.1 µM (inactive) | 49.3 µM (inactive) | – | > 100 µM (inactive) | – | > 100 µM (inactive) | > 100 µM (inactive) | > 100 µM (inactive) | 80.2 µM (inactive) | > 100 µM (inactive) | > 100 µM | > 100 µM (inactive) | 83.9 µM (inactive) | – | > 100 µM (inactive) | > 100 µM (inactive) | > 100 µM (inactive)
C=CCCC1(O)C(O)C(CO)O[C@H](O[C@@]2(CO)OC(CO)C(O)C2O)C1O (stereo not given in full) | > 100 µM (inactive) | > 100 µM (inactive) | > 100 µM (inactive) | > 100 µM (inactive) | > 100 µM (inactive) | – | > 100 µM (inactive) | > 100 µM (inactive) | > 100 µM (inactive) | > 100 µM (inactive) | > 100 µM (inactive) | > 100 µM (inactive) | > 100 µM (inactive) | > 100 µM | > 100 µM (inactive) | > 100 µM (inactive) | – | > 100 µM (inactive) | > 100 µM (inactive) | > 100 µM (inactive)
O=C1Cc2c([nH]c3cc(Br)ccc23)-c2ccccc2N1 | 31.1 µM (inactive) | 3.56 µM (inactive) | 9.51 µM (inactive) | 18.4 µM (inactive) | 14.4 µM (inactive) | 17.6 µM (inactive) | 18.5 µM (inactive) | 29.3 µM (inactive) | 18.6 µM (inactive) | – | 22.5 µM (inactive) | 22.8 µM (inactive) | 21.4 µM (inactive) | 4.21 µM | 18.5 µM (inactive) | 3.4 µM (inactive) | 3.24 µM (inactive) | 13.9 µM (inactive) | 19.2 µM (inactive) | –
NCC(=O)N[C@H]1c2ccsc2/C(=N/O)[C@H]1O | > 100 µM (inactive) | > 100 µM (inactive) | > 100 µM (inactive) | > 100 µM (inactive) | > 100 µM (inactive) | > 100 µM (inactive) | > 100 µM (inactive) | > 100 µM (inactive) | – | > 100 µM (inactive) | > 100 µM (inactive) | > 100 µM (inactive) | > 100 µM (inactive) | > 100 µM | > 100 µM (inactive) | > 100 µM (inactive) | > 100 µM (inactive) | > 100 µM (inactive) | > 100 µM (inactive) | –
CC(=O)[C@H]1CC[C@@H]2[C@]1(C)CC=C1[C@]23C=C[C@]2(C[C@@H](O)CC[C@]12C)C(C(=O)O)C3C(=O)O (stereo not given in full) | > 100 µM (inactive) | > 100 µM (inactive) | > 100 µM (inactive) | > 100 µM (inactive) | > 100 µM (inactive) | > 100 µM (inactive) | > 100 µM (inactive) | > 100 µM (inactive) | > 100 µM (inactive) | > 100 µM (inactive) | > 100 µM (inactive) | > 100 µM (inactive) | > 100 µM (inactive) | > 100 µM | > 100 µM (inactive) | > 100 µM (inactive) | – | > 100 µM (inactive) | > 100 µM (inactive) | > 100 µM (inactive)
O=C1CC2(CCC(O)(c3cccc4ccccc34)C(C(=O)c3cccc4ccccc34)C2)C(=O)c2ccccc2N1 (stereo not given) | 7.43 µM (inactive) | 91 µM (inactive) | 71.8 µM (inactive) | > 100 µM (inactive) | 11.1 µM (inactive) | 23.7 µM (inactive) | 72.8 µM (inactive) | 29.1 µM (inactive) | – | 28.9 µM (inactive) | 12.6 µM (inactive) | 17.7 µM (inactive) | 25.8 µM (inactive) | 26.4 µM | 29.8 µM (inactive) | 23.6 µM (inactive) | 4.1 µM (inactive) | 7.93 µM (inactive) | 29.6 µM (inactive) | –
OCCN1c2ccccc2Sc2ccccc21 | > 10 µM (inactive) | > 10 µM (inactive) | > 10 µM (inactive) | > 10 µM (inactive) | > 10 µM (inactive) | – | > 10 µM (inactive) | > 10 µM (inactive) | > 10 µM (inactive) | – | > 10 µM (inactive) | > 10 µM (inactive) | > 10 µM (inactive) | > 10 µM | > 10 µM (inactive) | > 10 µM (inactive) | – | > 10 µM (inactive) | > 10 µM (inactive) | > 10 µM (inactive)
CC1(C)CC(=O)c2c(nc3c4c([nH]c(-c5ccc([N+](=O)[O-])cc5)c24)CC(C)(C)C3)C1 | 19.9 µM (inactive) | 31.7 µM (inactive) | 58.1 µM (inactive) | 38.3 µM (inactive) | 26.7 µM (inactive) | 29.6 µM (inactive) | 53.3 µM (inactive) | 50.7 µM (inactive) | 37.4 µM (inactive) | 61.4 µM (inactive) | 30 µM (inactive) | 43.6 µM (inactive) | 81.8 µM (inactive) | 25.2 µM | 27.7 µM (inactive) | 41.1 µM (inactive) | 25.8 µM (inactive) | 11.1 µM (inactive) | 17 µM (inactive) | –
O=C1Nc2ccccc2C(=O)/C1=C/NC(=S)NCCc1ccccc1 | > 100 µM (inactive) | 98.4 µM (inactive) | > 100 µM (inactive) | > 100 µM (inactive) | > 100 µM (inactive) | > 100 µM (inactive) | > 100 µM (inactive) | 22.1 µM (inactive) | 55.3 µM (inactive) | > 100 µM (inactive) | > 100 µM (inactive) | > 100 µM (inactive) | > 100 µM (inactive) | > 100 µM | > 100 µM (inactive) | > 100 µM (inactive) | – | > 100 µM (inactive) | > 100 µM (inactive) | –
C=C[C@@](C)(/C=C/c1ccc(O)cc1)CCC=C(C)C [BAKUCHIOL] | 16.5 µM (inactive) | 16.8 µM (inactive) | 19.2 µM (inactive) | 16.9 µM (inactive) | 16.9 µM (inactive) | 17.7 µM (inactive) | 18.5 µM (inactive) | 17.1 µM (inactive) | – | – | 20.2 µM (inactive) | 18.6 µM (inactive) | 13.2 µM (inactive) | 16.8 µM | 19.1 µM (inactive) | 18.1 µM (inactive) | – | 16.5 µM (inactive) | 17.7 µM (inactive) | 14.9 µM (inactive)
COc1cc(C(=O)C2CC3(CCC2(O)c2cc(OC)c(OC)c(OC)c2)CC(=O)Nc2ccccc2C3=O)cc(OC)c1OC (stereo not given) | 40.4 µM (inactive) | 42.6 µM (inactive) | > 100 µM (inactive) | > 100 µM (inactive) | > 100 µM (inactive) | 33.7 µM (inactive) | > 100 µM (inactive) | > 100 µM (inactive) | – | > 100 µM (inactive) | 98.2 µM (inactive) | > 100 µM (inactive) | > 100 µM (inactive) | 50.6 µM | 91.2 µM (inactive) | 67.1 µM (inactive) | 99.5 µM (inactive) | > 100 µM (inactive) | 26.5 µM (inactive) | –
O=c1cc(N2CCCC2)[nH]c(=O)n1-c1ccccc1 | > 100 µM (inactive) | > 100 µM (inactive) | > 100 µM (inactive) | > 100 µM (inactive) | > 100 µM (inactive) | – | > 100 µM (inactive) | > 100 µM (inactive) | > 100 µM (inactive) | > 100 µM (inactive) | > 100 µM (inactive) | > 100 µM (inactive) | > 100 µM (inactive) | > 100 µM | > 100 µM (inactive) | > 100 µM (inactive) | – | > 100 µM (inactive) | > 100 µM (inactive) | > 100 µM (inactive)
CN(C)N1C(=O)S/C(=C\c2ccc([N+](=O)[O-])cc2)C1=O | > 100 µM (inactive) | > 100 µM (inactive) | > 100 µM (inactive) | 99.3 µM (inactive) | 51.5 µM (inactive) | – | > 100 µM (inactive) | > 100 µM (inactive) | > 100 µM (inactive) | > 100 µM (inactive) | > 100 µM (inactive) | > 100 µM (inactive) | > 100 µM (inactive) | > 100 µM | > 100 µM (inactive) | > 100 µM (inactive) | > 100 µM (inactive) | > 100 µM (inactive) | > 100 µM (inactive) | –
